Reference: ChEMBL document CHEMBL1932922, “Synthesis, antitubercular evaluation and 3D-QSAR study of N-phenyl-3-(4-fluorophenyl)-4-substituted pyrazole derivatives” (Bioorg Med Chem Lett, 2012)

Tested on: Mycobacterium tuberculosis
Assay: Antituberculosis activity against Mycobacterium tuberculosis H37Rv ATCC 27294 by modified BACTEC 460 method
Format: functional, organism-based
Details: for IC50 / IC90: Mycobacterium tuberculosis, H37Rv ATCC 27294

| SMILES | pIC90 | IC50 (read-out: pIC50 (converted)) [µM] | IC90 [µM] | IC50 (read-out: IC50) [µM] |
| --- | --- | --- | --- | --- |
| Cc1ccc(C2=NN[C@@H](c3cn(-c4ccccc4)nc3-c3ccc(F)cc3)C2)cc1 | 5.39 | 5.37 | – | – |
| Nc1nc(-c2ccccc2)cc(-c2cn(-c3ccccc3)nc2-c2ccc(F)cc2)n1 | 5 | 5.89 | 9.94 | 5.94 |
| Fc1ccc(-c2nn(-c3ccccc3)cc2[C@H]2CC(c3ccc(Cl)cc3)=NN2)cc1 | 4.16 | 43.7 | 68.7 | 43.3 |
| COc1ccc(C2=NN[C@@H](c3cn(-c4ccccc4)nc3-c3ccc(F)cc3)C2)cc1 | 4.91 | 0.468 | 12.3 | 0.47 |
| Nc1nc(-c2ccc(Cl)cc2)cc(-c2cn(-c3ccccc3)nc2-c2ccc(F)cc2)n1 | <3.65 | 95.5 | > 226 | 95.5 |
| O=C(/C=C/c1cn(-c2ccccc2)nc1-c1ccc(F)cc1)c1ccccc1 | 4.79 | 10.5 | 16.3 | 10.5 |
| COc1ccc(C(=O)/C=C/c2cn(-c3ccccc3)nc2-c2ccc(F)cc2)cc1 | 5 | 6.46 | 10.1 | 6.39 |
| Cc1ccc(C(=O)/C=C/c2cn(-c3ccccc3)nc2-c2ccc(F)cc2)cc1 | 5.1 | 7.24 | 7.96 | 7.18 |
| O=C(/C=C/c1cn(-c2ccccc2)nc1-c1ccc(F)cc1)c1ccc(Cl)cc1 | 4.15 | 33.9 | 71.3 | 33.9 |
| O=C(/C=C/c1cn(-c2ccccc2)nc1-c1ccc(F)cc1)c1ccc(F)cc1 | 5.09 | 7.08 | 8.09 | 7.14 |
| O=C(/C=C/c1cn(-c2ccccc2)nc1-c1ccc(F)cc1)c1ccc(O)cc1 | 5.07 | 7.41 | 8.47 | 7.46 |
| O=C(/C=C/c1cn(-c2ccccc2)nc1-c1ccc(F)cc1)c1ccccc1O | 4.34 | 26.3 | 45.4 | 26.2 |
| O=C(/C=C/c1cn(-c2ccccc2)nc1-c1ccc(F)cc1)c1ccc([N+](=O)[O-])cc1 | 4.27 | 12.6 | 53.5 | 12.7 |
| O=C(/C=C/c1cn(-c2ccccc2)nc1-c1ccc(F)cc1)c1ccc(Br)cc1 | 4.74 | 9.77 | 18.1 | 9.77 |
| O=C(/C=C/c1cn(-c2ccccc2)nc1-c1ccc(F)cc1)c1cccs1 | 4.87 | 8.13 | 13.5 | 8.08 |
| Oc1ccc(C2=NN[C@@H](c3cn(-c4ccccc4)nc3-c3ccc(F)cc3)C2)cc1 | 4.3 | 30.9 | 49.8 | 31 |
| Oc1ccccc1C1=NN[C@@H](c2cn(-c3ccccc3)nc2-c2ccc(F)cc2)C1 | 4.5 | 28.2 | 31.7 | 28.1 |
| O=[N+]([O-])c1cccc(C2=NN[C@@H](c3cn(-c4ccccc4)nc3-c3ccc(F)cc3)C2)c1 | 4.16 | 38.9 | 68.7 | 39 |
| Fc1ccc(-c2nn(-c3ccccc3)cc2[C@H]2CC(c3ccc(Br)cc3)=NN2)cc1 | 4.64 | 7.94 | 22.9 | 7.9 |
| Nc1ccc(C2=NN[C@@H](c3cn(-c4ccccc4)nc3-c3ccc(F)cc3)C2)cc1 | 3.9 | 74.1 | 127 | 74.4 |
| O=C(c1ccccc1)N1N=C(c2ccccc2)C[C@@H]1c1cn(-c2ccccc2)nc1-c1ccc(F)cc1 | 4.06 | 50.1 | 86.4 | 50.4 |
| COc1ccc(C2=NN(C(=O)c3ccccc3)[C@@H](c3cn(-c4ccccc4)nc3-c3ccc(F)cc3)C2)cc1 | 4.62 | 13.8 | 23.8 | 13.8 |
| Cc1ccc(C2=NN(C(=O)c3ccccc3)[C@@H](c3cn(-c4ccccc4)nc3-c3ccc(F)cc3)C2)cc1 | 5.46 | 3.02 | 3.48 | 3.02 |
| O=C(c1ccccc1)N1N=C(c2ccc(Cl)cc2)C[C@@H]1c1cn(-c2ccccc2)nc1-c1ccc(F)cc1 | <3.72 | 51.3 | > 192 | 51.4 |
| O=C(c1ccccc1)N1N=C(c2ccc(F)cc2)C[C@@H]1c1cn(-c2ccccc2)nc1-c1ccc(F)cc1 | 5.49 | 2.63 | 3.22 | 2.65 |
| O=C(c1ccccc1)N1N=C(c2ccc([N+](=O)[O-])cc2)C[C@@H]1c1cn(-c2ccccc2)nc1-c1ccc(F)cc1 | <3.73 | 57.5 | > 187 | 57.4 |

| SMILES | pIC90 | IC50 (read-out: pIC50 (converted)) [µM] | IC90 [µM] | IC50 (read-out: IC50) [µM] |
| --- | --- | --- | --- | --- |
| O=C(c1ccccc1)N1N=C(c2cccc([N+](=O)[O-])c2)C[C@@H]1c1cn(-c2ccccc2)nc1-c1ccc(F)cc1 | 3.99 | 42.7 | 101 | 42.4 |
| O=C(c1ccccc1)N1N=C(c2ccc(Br)cc2)C[C@@H]1c1cn(-c2ccccc2)nc1-c1ccc(F)cc1 | 4.12 | 38 | 75.7 | 37.8 |
| O=C(c1ccccc1)N1N=C(c2cccs2)C[C@@H]1c1cn(-c2ccccc2)nc1-c1ccc(F)cc1 | 4.05 | 46.8 | 88.7 | 46.9 |
| O=NN1N=C(c2ccccc2O)C[C@@H]1c1cn(-c2ccccc2)nc1-c1ccc(F)cc1 | <3.63 | 117 | > 234 | 119 |
| O=NN1N=C(c2ccc([N+](=O)[O-])cc2)C[C@@H]1c1cn(-c2ccccc2)nc1-c1ccc(F)cc1 | 4.39 | 25.1 | 40.5 | 25.3 |
| O=NN1N=C(c2cccc([N+](=O)[O-])c2)C[C@@H]1c1cn(-c2ccccc2)nc1-c1ccc(F)cc1 | 4.48 | 22.4 | 33.4 | 22.5 |
| O=NN1N=C(c2ccc(Br)cc2)C[C@@H]1c1cn(-c2ccccc2)nc1-c1ccc(F)cc1 | 4.47 | 21.4 | 33.7 | 21.4 |
| Nc1ccc(C2=NN(N=O)[C@@H](c3cn(-c4ccccc4)nc3-c3ccc(F)cc3)C2)cc1 | 4.42 | 20.9 | 37.8 | 20.9 |
| O=NN1N=C(c2cccs2)C[C@@H]1c1cn(-c2ccccc2)nc1-c1ccc(F)cc1 | 4.33 | 26.3 | 46.3 | 26.4 |
| Cc1ccc(-c2cc(-c3cn(-c4ccccc4)nc3-c3ccc(F)cc3)[nH]c(=S)n2)cc1 | 4.45 | 22.4 | 35.5 | 22.2 |
| Fc1ccc(-c2nn(-c3ccccc3)cc2-c2cc(-c3ccc(Cl)cc3)nc(=S)[nH]2)cc1 | 4.74 | 10.2 | 18 | 10.3 |
| Oc1ccc(-c2cc(-c3cn(-c4ccccc4)nc3-c3ccc(F)cc3)[nH]c(=S)n2)cc1 | <3.64 | 69.2 | > 227 | 69.2 |
| Oc1ccccc1-c1cc(-c2cn(-c3ccccc3)nc2-c2ccc(F)cc2)[nH]c(=S)n1 | 4.95 | 8.32 | 11.2 | 8.29 |
| O=[N+]([O-])c1ccc(-c2cc(-c3cn(-c4ccccc4)nc3-c3ccc(F)cc3)[nH]c(=S)n2)cc1 | 4.88 | 12 | 13.1 | 12.2 |
| O=[N+]([O-])c1cccc(-c2cc(-c3cn(-c4ccccc4)nc3-c3ccc(F)cc3)[nH]c(=S)n2)c1 | 4.37 | 28.2 | 43 | 27.9 |
| Fc1ccc(-c2nn(-c3ccccc3)cc2-c2cc(-c3ccc(Br)cc3)nc(=S)[nH]2)cc1 | 4.42 | 115 | – | – |
| Nc1ccc(-c2cc(-c3cn(-c4ccccc4)nc3-c3ccc(F)cc3)[nH]c(=S)n2)cc1 | <3.64 | 21.9 | > 228 | 22.1 |
| Fc1ccc(-c2nn(-c3ccccc3)cc2-c2cc(-c3cccs3)nc(=S)[nH]2)cc1 | 4.06 | 22.4 | 86.4 | 22.6 |
| Nc1nc(-c2ccc(F)cc2)cc(-c2cn(-c3ccccc3)nc2-c2ccc(F)cc2)n1 | 4.07 | 37.2 | 84.3 | 36.8 |
| Nc1nc(-c2ccc(O)cc2)cc(-c2cn(-c3ccccc3)nc2-c2ccc(F)cc2)n1 | 6.05 | 0.468 | 0.88 | 0.47 |
| Nc1nc(-c2ccccc2O)cc(-c2cn(-c3ccccc3)nc2-c2ccc(F)cc2)n1 | 4.18 | 57.5 | 65.9 | 57 |
| Nc1nc(-c2ccc([N+](=O)[O-])cc2)cc(-c2cn(-c3ccccc3)nc2-c2ccc(F)cc2)n1 | <3.66 | 75.9 | > 220 | 75.4 |
| Nc1nc(-c2cccc([N+](=O)[O-])c2)cc(-c2cn(-c3ccccc3)nc2-c2ccc(F)cc2)n1 | <3.66 | 52.5 | > 220 | 52.9 |
| Nc1nc(-c2ccc(Br)cc2)cc(-c2cn(-c3ccccc3)nc2-c2ccc(F)cc2)n1 | 4.84 | 10.7 | 14.5 | 10.6 |
| Nc1ccc(-c2cc(-c3cn(-c4ccccc4)nc3-c3ccc(F)cc3)nc(N)n2)cc1 | 4.82 | 13.8 | 15 | 13.8 |
